Data set [1] deals with Respiratory Syncytial Virus. Nature of the data set: In vitro screening for activity against RSV, automated tetrazolium-based (MTT) colorimetric assay in HeLa cells. The class given is cell-based. The conditions noted are these: human respiratory syncytial virus, 168 h, read-out: pIC50 (converted). An excerpt: In vitro screening of compounds of formula (I) for activity against RSV. The percent protection against cytopathology caused by viruses (antiviral activity or EC50) achieved by tested compounds and their cytotoxicity (CC50) are both calculated from dose-response curves. The selectivity of the antiviral effect is represented by the selectivity index (SI), calculated by dividing the CC50 (cytotoxic dose for 50% of the cells) by the EC50 (antiviral activity for 50% of the cells). The tables in the above experimental part list the category to which each of the prepared compounds belong: Compounds belonging to activity category “A” have a pEC50 (-log of EC50 when expressed in molar units) equal to or more than 7. Compounds belonging to activity category “B” have a pEC50 value between 6 and 7.
Automated tetrazolium-based colorimetric assays were used for determination of EC50 and CC50 of test compounds. Flat-bottom, 96-well plastic microtiter trays were filled with 180 μl of Eagle's Basal Medium, supplemented with 5% FCS (0% for FLU) and 20 mM Hepes buffer. Subsequently, stock solutions (7.8×final test concentration) of compounds were added in 45 μl volumes to a series of triplicate wells so as to allow simultaneous evaluation of their effects on virus- and mock-infected cells. Five five-fold dilutions were made directly in the microtiter trays using a robot system. Untreated virus controls, and HeLa cell controls were included in each test. Approximately 100 TCID50 of Respiratory Syncytial Virus was added to two of the three rows in a volume of 50 μl. The same volume of medium was added to the third row to measure the cytotoxicity of the compounds at the same concentrations as those used to measure the antiviral activity. After two hours of incubation, a suspension (4×10^5 cells/ml) of HeLa cells was added to all wells in a volume of 50 μl. The cultures were incubated at 37° C. in a 5% CO2 atmosphere. Seven days after infection the cytotoxicity and the antiviral activity was examined spectrophotometrically. To each well of the microtiter tray, 25 μl of a solution of MTT (3-(4,5-dimethylthiazol-2-yl)-2,5-diphenyltetrazolium bromide) was added. The trays were further incubated at 37° C. for 2 hours, after which the medium was removed from each cup. Solubilization of the formazan crystals was achieved by adding 100 μl 2-propanol. Complete dissolution of the formazan crystals were obtained after the trays have been placed on a plate shaker for 10 min. Finally, the absorbances were read in an eight-channel computer-controlled photometer (Multiskan MCC, Flow Laboratories) at two wavelengths (540 and 690 nm). The absorbance measured at 690 nm was automatically subtracted from the absorbance at 540 nm, so as to eliminate the effects of non-specific absorption.
The percent protection against cytopathology caused by viruses (antiviral activity or EC50) achieved by tested compounds and their cytotoxicity (CC50) were both calculated from dose-response curves. The selectivity of the antiviral effect is represented by the selectivity index (SI), calculated by dividing the CC50 (cytotoxic dose for 50% of the cells) by the EC50 (antiviral activity for 50% of the cells).

[2] abbreviates: protection against RSV cytopathology in HeLa cells, MTT readout seven days after infection.

The structures appear in SMILES notation. Where a name gives a salt, the structure may show the parent alone. Read-outs that look alike come from different tables or passages of the source.

One may read the melting point as the temperature, or range, at which the solid turns liquid. Molecule `COC(=O)c1ccc(Cn2c(=NCCc3ccc(Br)cc3)n(Cc3cccc4cccnc34)c3ccccc32)cc1` (as salt: HCl) [Compound 35] had a melting point of 128 °C.
On to `N#Cc1ccc(Cn2c(=NCCc3ccc(OCCO)cc3)n(Cc3cccc4cccnc34)c3ccccc32)cc1` [Compound 1], for which the IC50 in data set [1] (setting [2]) is 6.31 nM.
On the same count and under the same terms, for `N#Cc1ccc(CN=c2n(Cc3ccc(C#N)cc3)c3ccccc3n2Cc2cccc3cccnc23)cc1` [Compound 2] the value was 10 nM.
Molecule `N#Cc1ccc(Cn2c(=NCCc3ccc(O)cc3)n(Cc3cccc4cccnc34)c3ccccc32)cc1` [Compound 4] registered a melting point of 160 °C. Also, the IC50 in data set [1] (setting [2]) was 12.6 nM.
For `COC(=O)c1ccc(CN=c2n(Cc3ccc(C#N)cc3)c3ccccc3n2Cc2cccc3cccnc23)cc1` [Compound 5], in data set [1] (setting [2]), the IC50 is 15.8 nM.
Same read-out and setting: for `N#Cc1ccc(Cn2c(=NCCc3ccc(Br)cc3)n(Cc3cccc4cccnc34)c3ccccc32)cc1` [Compound 6] the value was 31.6 nM.
`N#Cc1ccc(Cn2c(=NCCc3cccc(F)c3)n(Cc3cccc4cccnc34)c3ccccc32)cc1` [Compound 8]: the melting point is 102 °C. Moreover, the IC50 in data set [1] (setting [2]) is 50.1 nM.
On the same counts, the results for `COc1ccc(CCCN=c2n(Cc3ccc(C#N)cc3)c3ccccc3n2Cc2cccc3cccnc23)cc1` [Compound 9] are 80 °C and 50.1 nM.
As to `N#Cc1ccc(Cn2c(=NCc3cccc(C#N)c3)n(Cc3cccc4cccnc34)c3ccccc32)cc1` [Compound 10], the IC50 in data set [1] (setting [2]) is 63.1 nM.
The same measure, in the same setting: for `N#Cc1ccc(Cn2c(=NCCc3ccc(F)cc3)n(Cc3cccc4cccnc34)c3ccccc32)cc1` [Compound 11] the value was 79.4 nM.
Molecule `N#Cc1ccc(Cn2c(=NCCCN3CCOCC3)n(Cc3cccc4cccnc34)c3ccccc32)cc1` [Compound 13] yielded a melting point of 80 °C. Also, the IC50 in data set [1] (setting [2]) is 126 nM.
As for `COc1ccccc1CCN=c1n(Cc2ccc(C#N)cc2)c2ccccc2n1Cc1cccc2cccnc12` [Compound 14], the IC50 in data set [1] (setting [2]) was 158 nM.
The same measure, in the same setting: for `N#Cc1ccc(Cn2c(=NCCCN3CCCC3=O)n(Cc3cccc4cccnc34)c3ccccc32)cc1` [Compound 15] the value was 200 nM; for `N#Cc1ccc(Cn2c(=NCCc3ccccc3)n(Cc3cccc4cccnc34)c3ccccc32)cc1` [Compound 25], 2000 nM.
Still for that read-out and setting: for `COC(=O)c1ccc(Cn2c(=NCCc3ccc(Br)cc3)n(Cc3cccc4cccnc34)c3ccccc32)cc1` [Compound 35] the value was 7.94 nM.
Same read-out and setting: for `COC(=O)c1ccc(Cn2c(=NCCCN3CCOCC3)n(Cc3cccc4cccnc34)c3ccccc32)cc1` [Compound 37] the value was 126 nM.
Regarding `COc1ccc(CCN=c2n(Cc3ccc(OC)cc3)c3ccccc3n2Cc2cccc3cccnc23)cc1` [Compound 41], the IC50 in data set [1] (setting [2]) is 63.1 nM.
Consider `COc1ccc(CCN=c2n(Cc3ccc(C)cc3)c3ccccc3n2Cc2cccc3cccnc23)cc1` [Compound 42], for which the IC50 in data set [1] (HeLa) is 79.4 nM.
Regarding `COc1ccc(CCN=c2n(Cc3ccc(Br)cc3)c3ccccc3n2Cc2cccc3cccnc23)cc1` [Compound 45], the IC50 in data set [1] (setting [2]) is 100 nM.
Same read-out and setting: for `COc1ccc(CCN=c2n(Cc3ccc(F)cc3)c3ccccc3n2Cc2cccc3cccnc23)cc1` [Compound 47] the value was 158 nM.
Consider `CCOc1ccc(CCn2c(=NCCc3ccc(OC)cc3)n(Cc3cccc4cccnc34)c3ccccc32)cc1` [Compound 48], for which, in data set [1] (setting [2]), the IC50 is 200 nM.
As to `COc1ccc(CCN=c2n(Cc3cccc(Cl)c3)c3ccccc3n2Cc2cccc3cccnc23)cc1` [Compound 49], the IC50 in data set [1] (setting [2]) was 251 nM.
Same read-out and setting: the same measure for `CCOc1ccc(CCn2c(=NCCc3ccc(Br)cc3)n(Cc3cccc4cccnc34)c3ccccc32)cc1` [Compound 51]: 501 nM.
On the same count and under the same terms, the same measure for `N#Cc1ccc(C(=O)Cn2c(=NCCc3ccc(Br)cc3)n(Cc3cccc4cccnc34)c3ccccc32)cc1` [Compound 53]: 2510 nM; for `N#Cc1ccc(Cn2c(=NCCCN3CCOCC3)n(Cc3ccc4ccccc4n3)c3ccccc32)cc1` [Compound 56]: 200 nM.

For the origin of these results see US7956196B2, “1,3-dihydro-benzimidazol-2-ylidene amines as inhibitors of respiratory syncytial virus replication” (Tibotec Pharmaceuticals Ltd., priority 2005, dated 2011).
